Molecules are shown by their SMILES. Structures can show the parent of a compound that is named as a salt. Where two headings read alike, the source gives them in different places. Some results are limits rather than exact numbers.

For one data set, the target named is T1, D1^high (Rattus norvegicus, UniProt P18901).
T1 construct: membrane-containing homogenates of rat corpus striatum tissue; from tissue; host or cells: rat corpus striatum
Briefly: Competitive radioreceptor binding, D1 high-affinity state, rat striatum [3H]SCH23390.

A further data set addresses T2, D1^low (Rattus norvegicus, UniProt P18901).
T2 construct: membrane-containing homogenates of rat corpus striatum tissue; from tissue; host or cells: rat corpus striatum
The data set can be described thus: Competitive radioreceptor binding, D1 low-affinity state, rat striatum [3H]SCH23390.

In the next data set the target is T3, D2^low (Rattus norvegicus, UniProt P61169).
T3 construct: membrane-containing homogenates of rat corpus striatum tissue; from tissue; host or cells: rat corpus striatum
The data set can be described thus: Competitive radioreceptor binding, D2 low-affinity state, rat striatum [3H]domperidone.

The target in the next data set is T4, D2^high (Rattus norvegicus, UniProt P61169).
T4 construct: membrane-containing homogenates of rat corpus striatum tissue; from tissue; host or cells: rat corpus striatum
Briefly: Competitive radioreceptor binding, D2 high-affinity state, rat striatum [3H]domperidone. Particulars: for D2^high binding affinity (in words): comparison with analogue.

The target in the next data set is T5, human D3 clone (Homo sapiens, UniProt P35462).
T5 construct: expressed in transfected cells
Briefly: Competitive binding, human D3 clone [3H]domperidone. Particulars: for Ki: human D3 clone, [3H]domperidone.

For the next data set, the target named is T6, D1 human clone (D1^low) (Homo sapiens, UniProt P21728).
T6 construct: expressed in transfected cells
Briefly: Competitive binding, D1 human clone [3H]SCH23390.

The next data set addresses T7, D3 rat clone (Rattus norvegicus, UniProt P19020).
T7 construct: expressed in transfected cells
Briefly: Competitive binding, D3 rat clone [3H]domperidone.

A further data set concerns the target T8, D3^high (Homo sapiens, UniProt P35462).
T8 construct: expressed in transfected cells
The data set can be described thus: D3 high-affinity state binding (footnote g). To be noted: footnote g of Table 1.

Setting [1] is: rat striatum, [3H]SCH23390, read-out: Ki D1^low (class).
The mark [2] stands for this setting: rat striatum, [3H]domperidone, read-out: Ki D2^high.

T5 sequence (P35462 whole entry): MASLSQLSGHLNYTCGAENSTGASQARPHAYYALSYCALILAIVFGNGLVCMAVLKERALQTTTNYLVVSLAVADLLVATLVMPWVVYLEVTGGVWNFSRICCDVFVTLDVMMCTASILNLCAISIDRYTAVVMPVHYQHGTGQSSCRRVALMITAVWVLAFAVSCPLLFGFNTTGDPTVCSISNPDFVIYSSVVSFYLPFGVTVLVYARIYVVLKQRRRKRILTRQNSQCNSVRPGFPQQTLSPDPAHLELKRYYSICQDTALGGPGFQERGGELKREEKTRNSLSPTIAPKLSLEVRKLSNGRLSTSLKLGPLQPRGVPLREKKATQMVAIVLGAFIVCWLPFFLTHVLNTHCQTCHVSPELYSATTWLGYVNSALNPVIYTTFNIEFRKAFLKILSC
T7 sequence (P19020 whole entry): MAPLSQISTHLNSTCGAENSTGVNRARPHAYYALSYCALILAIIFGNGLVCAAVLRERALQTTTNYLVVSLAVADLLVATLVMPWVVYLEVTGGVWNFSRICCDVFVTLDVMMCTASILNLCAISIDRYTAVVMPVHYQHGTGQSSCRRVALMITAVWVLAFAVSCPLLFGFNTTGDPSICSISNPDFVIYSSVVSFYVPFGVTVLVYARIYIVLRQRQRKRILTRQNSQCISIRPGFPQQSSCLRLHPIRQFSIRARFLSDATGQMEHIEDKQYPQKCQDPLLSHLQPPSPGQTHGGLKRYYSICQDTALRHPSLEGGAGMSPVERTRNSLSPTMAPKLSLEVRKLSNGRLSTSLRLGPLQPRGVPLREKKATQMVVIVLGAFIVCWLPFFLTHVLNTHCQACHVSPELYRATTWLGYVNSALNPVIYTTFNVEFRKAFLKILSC
T3 sequence (P61169 whole entry): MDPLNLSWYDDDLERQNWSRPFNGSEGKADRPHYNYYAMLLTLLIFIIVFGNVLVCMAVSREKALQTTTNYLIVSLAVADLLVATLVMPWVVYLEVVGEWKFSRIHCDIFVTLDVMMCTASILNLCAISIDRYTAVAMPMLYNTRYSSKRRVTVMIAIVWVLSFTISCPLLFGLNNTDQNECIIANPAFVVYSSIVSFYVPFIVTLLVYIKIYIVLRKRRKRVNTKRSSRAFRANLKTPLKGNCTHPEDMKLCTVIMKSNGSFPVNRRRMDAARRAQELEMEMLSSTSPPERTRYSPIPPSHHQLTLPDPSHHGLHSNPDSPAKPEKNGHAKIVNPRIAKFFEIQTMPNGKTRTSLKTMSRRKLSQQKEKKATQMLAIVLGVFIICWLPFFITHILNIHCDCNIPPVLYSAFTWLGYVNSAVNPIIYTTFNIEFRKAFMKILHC
T4 sequence (P61169 whole entry): as above
T2 sequence (P18901 whole entry): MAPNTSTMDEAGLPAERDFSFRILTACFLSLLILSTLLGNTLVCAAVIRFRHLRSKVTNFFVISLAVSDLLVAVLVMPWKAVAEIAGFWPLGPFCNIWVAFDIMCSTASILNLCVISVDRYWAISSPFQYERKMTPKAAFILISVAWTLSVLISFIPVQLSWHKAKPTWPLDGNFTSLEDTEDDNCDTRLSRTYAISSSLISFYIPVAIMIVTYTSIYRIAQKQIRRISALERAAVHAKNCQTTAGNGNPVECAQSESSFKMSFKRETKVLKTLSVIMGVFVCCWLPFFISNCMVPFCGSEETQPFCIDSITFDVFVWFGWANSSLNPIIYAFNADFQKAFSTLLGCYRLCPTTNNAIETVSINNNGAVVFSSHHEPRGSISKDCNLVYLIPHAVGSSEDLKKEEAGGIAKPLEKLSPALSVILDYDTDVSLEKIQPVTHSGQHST
T1 sequence (P18901 whole entry): as above
T6 sequence (P21728 whole entry): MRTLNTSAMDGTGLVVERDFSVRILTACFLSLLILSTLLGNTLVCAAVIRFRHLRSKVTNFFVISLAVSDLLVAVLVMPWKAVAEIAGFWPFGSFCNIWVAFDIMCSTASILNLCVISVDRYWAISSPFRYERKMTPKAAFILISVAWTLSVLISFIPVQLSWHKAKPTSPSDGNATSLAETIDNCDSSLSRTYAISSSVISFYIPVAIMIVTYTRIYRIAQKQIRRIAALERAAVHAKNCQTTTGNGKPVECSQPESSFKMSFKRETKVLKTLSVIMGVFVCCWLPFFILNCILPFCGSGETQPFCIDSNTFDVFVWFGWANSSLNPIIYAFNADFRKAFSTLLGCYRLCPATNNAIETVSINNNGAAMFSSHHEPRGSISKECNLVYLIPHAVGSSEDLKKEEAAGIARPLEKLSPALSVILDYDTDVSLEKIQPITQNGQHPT
T8 sequence (P35462 whole entry): as the sequence (P35462 whole entry) above

What is called Ki is the equilibrium dissociation constant of an inhibitor or competing ligand from its target. As for `CCN1CCc2cc(OCCF)cc3c2[C@H]1Cc1ccc(O)c(O)c1-3` [8d, R(−)-2-fluoroethoxy-N-ethylnorapomorphine], at D1^high, the “Ki D1^high” value is “No D1^high”. For the same compound, the Ki at D1^low (setting [1]) was over 2000 nM; on D2^low, 2400 ± 1500 nM; on D2^high (setting [2]) it was 2.5 nM. Besides, the “fold improvement in D2^high binding affinity” value at D2^high (compared with 8c) is on record as “more than 2 fold”.

In turn, `CCCN1CCc2cccc3c2[C@H]1Cc1cccc(O)c1-3` [3b, reference compound] registered a Ki at human D3 clone of 1.7 ± 0.25 µM.

As a reminder, the melting point is the temperature, or range, at which the solid turns liquid. As to `CCN1CCc2cc(OCCCF)cc3c2[C@H]1Cc1cccc(O)c1-3` (as salt: HCl) [11c], the melting point is 156 to 158 °C (dec.).

Regarding `CCN1CCc2cc(OCCCF)cc3c2[C@H]1Cc1ccc(O)c(O)c1-3` [8c, R(−)-2-(3-Fluoropropanoxy) 10,11-dihydroxy-N-ethylnoraporphine], the “Ki D1^high” value on D1^high is “No D1^high”. Moreover, the Ki was over 2000 nM on D1^low (setting [1]), 1600 ± 780 nM on D2^low and 6.1 ± 3 nM on D2^high (setting [2]). The “fold increase in D2^high affinity” value at D2^high (in comparison to 8a) was about 4 fold.

Take `CN1CCc2cc(OCCCF)cc3c2[C@H]1Cc1ccc(O)c(O)c1-3` (as salt: HCl) [8f, R(−)-2-(3-Fluoropropanoxy) 10,11-dihydroxyaporphine]: the melting point was 170 to 175 °C (dec.).

Turning to `Oc1cccc2c1-c1cccc3c1[C@@H](C2)N(CCCF)CC3` [compound 6, R(−)-11-Hydroxy-N-(3-fluoropropyl)noraporphine], the “Ki D1^high” value on D1^high was “No D1^high”. The Ki on human D3 clone (bound given in μM) is over 10 µM; at D1^low (setting [1]), over 2000 nM; at D2^low it was 860 ± 170 nM; at D2^high (setting [2]), 6.9 ± 2.1 nM.

`CN1CCc2cc(OCCF)cc3c2[C@H]1Cc1cccc(O)c1-3` [11g, R(−)-2-(2-fluoroethoxy)-11-hydroxyaporphine]: the Ki on human D3 clone was determined as 0.89 ± 0.13 µM; at D2^low it was 480 ± 130 nM; on D2^high (setting [2]) it was 1.2 ± 0.4 nM.

As for `CCN1CCc2cc(OCCF)cc3c2[C@H]1Cc1ccc(O)c(O)c1-3` (as salt: HCl) [8d, R(−)-2-fluoroethoxy-N-ethylnorapomorphine], the melting point was 163 to 165 °C.

As for `CCN1CCc2cc(OCCF)cc3c2[C@H]1Cc1cccc(O)c1-3` [11d, R(−)-2-(2-fluoroethoxy)-11-hydroxy-N-n-ethylnoraporphine], the Ki was found to be 810 ± 120 nM on D1 human clone (D1^low) (D1 human clone, [3H]SCH23390, read-out: Ki D1^low) and 550 ± 89 nM at D3 rat clone. Also, the “Ki D1^high” value on D1^high is listed as “No D1^high”.

As for `CCCN1CCc2cc(F)cc3c2[C@H]1Cc1ccc(O)c(O)c1-3` [2c, 2-F-NPA, reference compound], the “Ki D1^high” value at D1^high was “No D1^high”. The Ki at D1^low (setting [1]) is over 2000 nM; on D2^low, 1800 ± 340 nM; on D2^high (setting [2]) it was 2.7 ± 1.3 nM.

Consider `CN1CCc2cc(OCCF)cc3c2[C@H]1Cc1ccc(O)c(O)c1-3` [8g, R(−)-2-(2-Fluoroethoxy) 10,11-dihydroxyaporphine], for which, on D1^high, the “Ki D1^high” value is given as “No D1^high”. Besides, the “D3 affinity (in words)” value on human D3 clone is “no detectable affinity”. For the same compound, the inhibitory constant (Ki) is over 2000 nM at D1^low (setting [1]) and 620 ± 260 nM on D2^low.

On to `CCCN1CCc2cc(OCCF)cc3c2[C@H]1Cc1ccc(O)c(O)c1-3` (as salt: HCl) [8b, R(−)-2-Fluoroethyoxy-NPA], for which the melting point was 203 to 205 °C (dec.).

With `CN1CCc2cc(OCCF)cc3c2[C@H]1Cc1ccc(O)c(O)c1-3` (as salt: salt) [8g, R(−)-2-(2-Fluoroethoxy) 10,11-dihydroxyaporphine], the melting point is 236 to 238 °C (dec.).

On to `CCCN1CCc2cc(OC)cc3c2[C@H]1Cc1ccc(O)c(O)c1-3` [2b, 2-MeO-NPA, reference compound], for which the Ki on D1^high was 8.1 ± 0.7 nM; at D1^low, over 2000 nM; at D2^low, 805 ± 140 nM; on D2^high (setting [2]), 5.1 ± 1.3 nM.

Regarding `CCN1CCc2cc(OCCCF)cc3c2[C@H]1Cc1ccc(O)c(O)c1-3` (as salt: HCl) [8c, R(−)-2-(3-Fluoropropanoxy) 10,11-dihydroxy-N-ethylnoraporphine], the melting point was 174 to 176 °C (dec.).

Take `CCCN1CCc2cc(OCCF)cc3c2[C@H]1Cc1ccc(O)c(O)c1-3` [8b, R(−)-2-Fluoroethyoxy-NPA]: on D1^high, the “Ki D1^high” value is on record as “No D1^high”. Moreover, the inhibition constant Ki at human D3 clone is 2.2 ± 0.33 µM; at D1^low (setting [1]) it was over 2000 nM; on D2^low it was 990 ± 35 nM; on D2^high (setting [2]), 3.7 nM.

`CN1CCc2cc(OCCCF)cc3c2[C@H]1Cc1ccc(O)c(O)c1-3` [8f, R(−)-2-(3-Fluoropropanoxy) 10,11-dihydroxyaporphine]: the “Ki D1^high” value at D1^high is “No D1^high”. For the same compound, the “D3^high affinity” value at D3^high is given as “did not show any D3^high affinity”. Besides, the Ki was over 2000 nM at D1^low (setting [1]) and 31 nM on D2^high (setting [2]).

As to `CCN1CCc2cc(OCCCF)cc3c2[C@H]1Cc1cccc(O)c1-3` [11c], the Ki at D1 human clone (D1^low) was determined as 1300 ± 200 nM; at D3 rat clone, 240 ± 33 nM; on D2^low, 400 ± 290 nM; on D2^high (setting [2]), 3.2 ± 2.2 nM. For the same compound, the “Ki D1^high” value at D1^high was “No D1^high”. The “D2^high binding affinity (in words)” value on D2^high is reported as “overall improved binding affinity”.

As for `CCCN1CCc2cc(OCCCF)cc3c2[C@H]1Cc1ccc(O)c(O)c1-3` [8a, R(−)-2-(3-fluoropropanoxy)-NPA], the “Ki D1^high” value at D1^high is reported as “No D1^high”. For the same compound, the Ki on human D3 clone was 0.43 ± 0.064 µM; at D1^low, over 2000 nM; at D2^low, 3000 nM; at D2^high, 27 nM; at D2^high (setting [2]) it was 28 ± 15 nM.

As for `CCN1CCc2cc(OCCI)cc3c2[C@H]1Cc1ccc(O)c(O)c1-3` [8e, R(−)-2-iodoethoxy-N-ethylnorapomorphine], at D1^high, the “Ki D1^high” value is on record as “No D1^high”. The Ki at human D3 clone (bound given in μM) was over 10 µM; on D1^low (setting [1]), over 2000 nM; at D2^low, 770 ± 230 nM; at D2^high, 5 ± 2.3 nM. Also, at D2^high, the “D2^high binding affinity (in words)” value is reported as “slight drop”. At D2^high (in words), the “selectivity for D2^high over D1, D3, and D2^low” value is “high selectivity”.

Turning to `CCN1CCc2cc(OCCI)cc3c2[C@H]1Cc1ccc(O)c(O)c1-3` (as salt: HCl) [8e, R(−)-2-iodoethoxy-N-ethylnorapomorphine], the melting point was 155 to 163 °C (dec.).

Consider `Oc1cccc2c1-c1cccc3c1[C@@H](C2)N(CCCF)CC3` (as salt: HCl) [compound 6, R(−)-11-Hydroxy-N-(3-fluoropropyl)noraporphine], for which the melting point was 195 to 197 °C (dec.).

As to `CCCN1CCc2cc(OCCF)cc3c2[C@H]1Cc1cccc(O)c1-3` [11b, R(−)-2-(2-fluoroethoxy)-11-hydroxy-N-n-propylnoraporphine], on D1^high, the “Ki D1^high” value was “No D1^high”. Further, the Ki is 410 ± 62 nM on D3 rat clone, over 2000 nM at D1^low, 56 ± 37 nM on D2^low and 3.5 ± 2 nM at D2^high (setting [2]). In addition, the “D2^high binding affinity (in words)” value at D2^high was “about the same”.

As for `CCCN1CCc2cc(OCCCF)cc3c2[C@H]1Cc1cccc(O)c1-3` [11a], the “Ki D1^high” value on D1^high is given as “No D1^high”. Besides, the Ki at D3 rat clone was 100 ± 14 nM; at D1^low (setting [1]) it was over 2000 nM.

The values are drawn from patent US9517279B2, “2-alkoxy-11-hydroxyaporphine derivatives and uses thereof” (The McLean Hospital Corporation, priority 2010, dated 2016).
